Laboratory results reported in patent US6825182B2, “17α-fluoroalkyl-11β-benzaldoxime steroids, process for their production, pharmaceutical preparations that contain these steroids as well as their use for the production of pharmaceutical agents” (Schering AG, priority 2002, dated 2004).

What was measured:
Progesterone Receptor = experiment: Receptor bond: relative molar binding affinity to the progesterone receptor; conditions: Progesterone = 100%
Source text: (§1) The methods for the in-vitro tests and the in-vivo tests with the compounds according to the invention can be found in EP 0 411 733 A2 and DE 43 32 283 A1: […]

Glucocorticoid Receptor = experiment: Receptor bond: relative molar binding affinity to the glucocorticoid receptor; conditions: Dexamethasone = 100%
pregnancy in rats = experiment: Early abortive action in rats after subcutaneous administration from the 5th to 7th day of pregnancy; assay type: in vivo, rat; conditions: s.c., day 5-7 of pregnancy; for Complete Inhibition of Pregnancy (empty uteri) N#/N: nonpregnant females/paired females
Source text: as §1

[1] = cited from earlier work
tumor models = conditions: in vivo; cited from earlier work

| Compound | Relative Molar Binding-affinity RBA (%) to the Progesterone Receptor (Progesterone Receptor) | Relative Molar Binding-affinity RBA (%) to the Glucocorticoid Receptor (Glucocorticoid Receptor) | Complete Inhibition of Pregnancy (empty uteri) (pregnancy in rats; 1 mg/animal/day) | Complete Inhibition of Pregnancy (empty uteri) N#/N (pregnancy in rats; 1 mg/animal/day) | Complete Inhibition of Pregnancy (empty uteri) (pregnancy in rats; 0.3 mg/animal/day) | Complete Inhibition of Pregnancy (empty uteri) N#/N (pregnancy in rats; 0.3 mg/animal/day) | other results |
| --- | --- | --- | --- | --- | --- | --- | --- |
| CC12CC(c3ccc(C=NO)cc3)C3=C4CCC(=O)C=C4CCC3C1CCC2(O)C(F)(F)F (stereo not drawn) [Compound No. 2, 4-[17β-Hydroxy-17α-(1,1,1-trifluoromethyl)-3-oxoestra-4,9-dien-11β-yl]benzaldehyde-1(Z)-oxime] | 123% | 113% | – | – | – | – | – |
| CC12CC(c3ccc(C=NO)cc3)C3=C4CCC(=O)C=C4CCC3C1CCC2(O)C(F)(F)C(F)(F)F (stereo not drawn) [Example 2, 4-[17β-Hydroxy-17α-(1,1,2,2,2-pentafluoroethyl)-3-oxoestra-4,9-dien-11β-yl]-benzaldehyde-(1E)-oxime] | 23% | 10% | 100 | 5/5 | – | – | – |
| 4-[17β-Hydroxy-17α-(1,1,1-trifluoroethyloxymethyl)-3-oxoestra-4,9-dien-11β-yl]-benzaldehyde-(1E)-oxime [Example 6] | – | – | 100 | 4/4 | 100 | 4/4 | Complete Inhibition of Pregnancy (empty uteri) (pregnancy in rats; 0.1 mg/animal/day): 0; Complete Inhibition of Pregnancy (empty uteri) N#/N (pregnancy in rats; 0.1 mg/animal/day): 0/4 |
| COC1(C(F)(F)C(F)(F)F)CCC2C3CCC4=CC(=O)CCC4=C3C(c3ccc(C=NO)cc3)CC21C (stereo not drawn) [Example 4, 4-[17β-Methoxy-17α-(1,1,2,2,2-pentafluoroethyl)-3-oxoestra-4,9-dien-11β-yl]-benzaldehyde-(1E)-oxime] | – | – | 50 | 2/4 | – | – | – |
| CC(=O)ON=Cc1ccc(C2CC3(C)C(CCC3(O)C(F)(F)C(F)(F)F)C3CCC4=CC(=O)CCC4=C23)cc1 (stereo not drawn) [compound 5, 4-[17β-Hydroxy-17α-(1,1,2,2,2-pentafluoroethyl)-3-oxoestra-4,9-dien-11β-yl]benzaldehyde-1(E)-O-acetyloxime] | 0.5% | 10% | – | – | – | – | – |
| CCNC(=O)ON=Cc1ccc(C2CC3(C)C(CCC3(O)C(F)(F)C(F)(F)F)C3CCC4=CC(=O)CCC4=C23)cc1 (stereo not drawn) [Example 3, 4-[17β-Hydroxy-17α-(1,1,2,2,2-pentafluoroethyl)-3-oxoestra-4,9-dien-11β-yl]-benzaldehyd-1-one-(1E)-{O-(ethylamino)carbonyl-oxime] | 230% | 84% | 100 | 4/4 | – | – | – |
| CC#C[C@]1(O)CC[C@H]2[C@@H]3CCC4=CC(=O)CCC4=C3[C@@H](c3ccc(N(C)C)cc3)C[C@@]21C [RU 486, 11β-(4-Dimethylaminophenyl)-17β-hydroxy-17α-propinyl-estra-4,9-dien-3-one, reference compound] | – | – | 20 | 1/5 | 0 | 0/5 | Complete Inhibition of Pregnancy (empty uteri) (pregnancy in rats; 3 mg/animal/day): 100; Complete Inhibition of Pregnancy (empty uteri) N#/N (pregnancy in rats; 3 mg/animal/day): 5/5 |
| CCNC(=O)ON=Cc1ccc(C2CC3(C)C(CCC3(O)C(F)(F)F)C3CCC4=CC(=O)CCC4=C23)cc1 (stereo not drawn) [compound 3, 4-[17β-Hydroxy-17α-(1,1,1-trifluoromethyl)-3-oxoestra-4,9-dien-11β-yl]benzaldehyde-1(E)-[O-(ethylamino)carbonyl]oxime] | 98% | 187% | – | – | – | – | – |
| CN(C)c1ccc([C@H]2C[C@]3(C)[C@@H](CC[C@]3(O)CCCO)[C@@H]3CCC4=CC(=O)CCC4=C32)cc1 [Onapristone, reference compound] | 22% | 39% | – | – | – | – | – |
| CC12CC(c3ccc(C=NO)cc3)C3=C4CCC(=O)C=C4CCC3C1CCC2(O)C(F)(F)F (stereo not drawn) [Example 1, 4-[17β-Hydroxy-17α-(trifluoromethyl)-3-oxoestra-4,9-dien-11β-yl]benzaldehyde-(1E)-oxime] | 272% | 163% | 100 | 4/4 | 100 | 4/4 | Complete Inhibition of Pregnancy (empty uteri) (pregnancy in rats; 0.03 mg/animal/day): 0; Complete Inhibition of Pregnancy (empty uteri) N#/N (pregnancy in rats; 0.03 mg/animal/day): 0/6; Complete Inhibition of Pregnancy (empty uteri) (pregnancy in rats; 0.1 mg/animal/day): 75; Complete Inhibition of Pregnancy (empty uteri) N#/N (pregnancy in rats; 0.1 mg/animal/day): 1/4 |
| CC(=O)c1ccc([C@H]2C[C@@]3(C)[C@@H](CC[C@@]3(O)C(F)(F)C(F)(F)F)[C@@H]3CCC4=CC(=O)CCC4=C32)cc1 [ZK 230 211, 11β-(4-Acetylphenyl)-17β-hydroxy-17α-(1,1,2,2,2-pentafluoroethyl)-estra-4,9-dien-3-one, reference compound] | – | – | 75 | 3/4 | 0 | 0/6 | Receptor selectivity (in words) [1]: high receptor selectivity; Antiproliferative activity in the tumor models (in words) (tumor models): antiproliferative activity; Complete Inhibition of Pregnancy (empty uteri) (pregnancy in rats; 3 mg/animal/day): 100; Complete Inhibition of Pregnancy (empty uteri) N#/N (pregnancy in rats; 3 mg/animal/day): 4/4 |
